Source: patent publication US10206937B2, “Boronic acid derivatives and therapeutic uses thereof” (Qpex Biopharma, Inc., priority 2014, dated 2019)

Test system: strains of Enterobacteriaceae producing various carbapenemases (class A, D and B; 104 strains)
Assay: Antibiotics potentiation by Compound 27 (MIC; meropenem, doripenem, ertapenem, cefepime)
Assay type: cell-based
Details: + 27 = with Compound 27 at fixed 4 μg/ml

## COc1ccc2c(c1C(=O)O)OB(O)C(Sc1nnc(N)s1)C2 (centres unmarked) [M + 27]
Strain CF1012 Citrobacter freundii (KPC-2)
  MIC: X (MIC of less than 1 μg/mL)
Strain CF1021 Citrobacter freundii (CMY-type; VIM-1)
  MIC: X (MIC of less than 1 μg/mL)
Strain CF1022 Citrobacter freundii (SHV-12(2be), TEM-OSBL(2b); IMP-8)
  MIC: X (MIC of less than 1 μg/mL)
Strain CF1023 Citrobacter freundii (SHV-12(2be), TEM-OSBL(2b); CTX-M-3; CMY-34; NDM-1)
  MIC: X (MIC of less than 1 μg/mL)
Strain CL1080 Enterobacter cloacae (IMP-1)
  MIC: X (MIC of less than 1 μg/mL)
Strain EA1019 Enterobacter aerogenes (SHV-5, VIM-1)
  MIC: X (MIC of less than 1 μg/mL)
Strain EC1007 Escherichia coli (KPC-3)
  MIC: X (MIC of less than 1 μg/mL)
Strain EC1061 Escherichia coli (NDM-1, CMY-6)
  MIC: X (MIC of less than 1 μg/mL)
Strain EC1062 Escherichia coli (OXA-48, CTX-M-15)
  MIC: X (MIC of less than 1 μg/mL)
Strain EC1064 Escherichia coli (NDM-1, CMY-6, CTX-M-15)
  MIC: Y (MIC of 1 μg/mL to 10 μg/mL)
Strain EC1065 Escherichia coli (IMP-1)
  MIC: X (MIC of less than 1 μg/mL)
Strain EC1068 Escherichia coli (VIM-1)
  MIC: X (MIC of less than 1 μg/mL)
Strain EC1069 Escherichia coli (CTX-M-27; NDM-1)
  MIC: X (MIC of less than 1 μg/mL)
Strain EC1070 Escherichia coli (TEM-OSBL(2b); CMY-42; NDM-5)
  MIC: X (MIC of less than 1 μg/mL)
Strain EC1072 Escherichia coli (CTX-M-3; NDM-1)
  MIC: X (MIC of less than 1 μg/mL)
Strain ECL1004 Enterobacter cloacae (NMC-A)
  MIC: X (MIC of less than 1 μg/mL)
Strain ECL1026 Enterobacter cloacae (KPC-2, TEM-1)
  MIC: X (MIC of less than 1 μg/mL)
Strain ECL1036 Enterobacter cloacae (KPC-3, TEM-1)
  MIC: X (MIC of less than 1 μg/mL)
Strain ECL1045 Enterobacter cloacae (VIM-1)
  MIC: X (MIC of less than 1 μg/mL)
Strain ECL1055 Enterobacter cloacae (KPC-3, TEM)
  MIC: X (MIC of less than 1 μg/mL)
Strain ECL1057 Enterobacter cloacae (NDM-1, TEM-1, CTX-M-15)
  MIC: Z (MIC of greater than 10 μg/mL)
Strain ECL1058 Enterobacter cloacae (KPC-3, SHV-11, TEM-1)
  MIC: X (MIC of less than 1 μg/mL)
Strain ECL1059 Enterobacter cloacae (KPC-3, SHV-12, TEM-1)
  MIC: X (MIC of less than 1 μg/mL)
Strain ECL1061 Enterobacter cloacae (KPC-3, Hyper AmpC expression)
  MIC: X (MIC of less than 1 μg/mL)
Strain ECL1082 Enterobacter cloacae (VIM-1)
  MIC: X (MIC of less than 1 μg/mL)
Strain ECL1084 Enterobacter cloacae (CTX-M-15; ACT-16; NDM-1)
  MIC: X (MIC of less than 1 μg/mL)
Strain ECL1085 Enterobacter cloacae (SHV-31(2be), TEM-1(2b); CTX-M-15; NDM-1)
  MIC: X (MIC of less than 1 μg/mL)
Strain ECL1086 Enterobacter cloacae (VIM-31, OXA-48(c))
  MIC: X (MIC of less than 1 μg/mL)
Strain ECL1087 Enterobacter cloacae (VIM-1)
  MIC: X (MIC of less than 1 μg/mL)
Strain ECL1088 Enterobacter cloacae (TEM-1(2b); CTX-M-14; ACT-type; VIM-1)
  MIC: X (MIC of less than 1 μg/mL)
Strain ECL1089 Enterobacter cloacae (ACT-type; IMP-1)
  MIC: Y (MIC of 1 μg/mL to 10 μg/mL)
Strain ECL1090 Enterobacter cloacae (TEM-1(2b); CTX-M-22; ACT-type; IMP-8)
  MIC: X (MIC of less than 1 μg/mL)
Strain ECL1091 Enterobacter cloacae (VIM-1)
  MIC: X (MIC of less than 1 μg/mL)
Strain ECL1092 Enterobacter cloacae (TEM-OSBL(2b); ACT-32; VIM-1)
  MIC: X (MIC of less than 1 μg/mL)
Strain ECL1093 Enterobacter cloacae (TEM-OSBL(2b); ACT-32; VIM-1)
  MIC: X (MIC of less than 1 μg/mL)
Strain ECL1094 Enterobacter cloacae (VIM-1)
  MIC: X (MIC of less than 1 μg/mL)
Strain ECL1096 Enterobacter cloacae (CMY-4, VIM-4, OXA-48(c))
  MIC: X (MIC of less than 1 μg/mL)
Strain ECL1097 Enterobacter cloacae (SHV-31(2be), TEM-OSBL(2b); CTX-M-15; ACT-31; NDM-1)
  MIC: X (MIC of less than 1 μg/mL)
Strain ECL1098 Enterobacter cloacae (TEM-OSBL(2b); DHA-1; ACT-16; NDM-1)
  MIC: X (MIC of less than 1 μg/mL)
Strain KP1001 Klebsiella pneumoniae (KPC TEM SHV)
  MIC: Y (MIC of 1 μg/mL to 10 μg/mL)
Strain KP1002 Klebsiella pneumoniae (KPC TEM SHV)
  MIC: X (MIC of less than 1 μg/mL)
Strain KP1003 Klebsiella pneumoniae (KPC TEM SHV)
  MIC: X (MIC of less than 1 μg/mL)
Strain KP1004 Klebsiella pneumoniae (KPC-2, TEM-1, SHV-11)
  MIC: X (MIC of less than 1 μg/mL)
Strain KP1008 Klebsiella pneumoniae (KPC-2)
  MIC: X (MIC of less than 1 μg/mL)
Strain KP1014 Klebsiella pneumoniae (VIM-1, TEM, SHV)
  MIC: X (MIC of less than 1 μg/mL)
Strain KP1054 Klebsiella pneumoniae (VIM-1, SHV-11)
  MIC: X (MIC of less than 1 μg/mL)
Strain KP1059 Klebsiella pneumoniae (VIM-1, SHV-11)
  MIC: Y (MIC of 1 μg/mL to 10 μg/mL)
Strain KP1061 Klebsiella pneumoniae (KPC-3, SHV-11, TEM-1)
  MIC: X (MIC of less than 1 μg/mL)
Strain KP1064 Klebsiella pneumoniae (KPC-2, SHV-11, TEM-1)
  MIC: Y (MIC of 1 μg/mL to 10 μg/mL)
Strain KP1065 Klebsiella pneumoniae (VIM-1, SHV-11)
  MIC: X (MIC of less than 1 μg/mL)
Strain KP1070 Klebsiella pneumoniae (KPC-2, SHV-11, TEM-1)
  MIC: X (MIC of less than 1 μg/mL)
Strain KP1074 Klebsiella pneumoniae (KPC-3, SHV-11, TEM)
  MIC: Z (MIC of greater than 10 μg/mL)
Strain KP1081 Klebsiella pneumoniae (NDM-1, TEM-1, SHV-11, CMY-6, CTX-M-15)
  MIC: X (MIC of less than 1 μg/mL)
Strain KP1082 Klebsiella pneumoniae (KPC-2, SHV-1)
  MIC: X (MIC of less than 1 μg/mL)
Strain KP1083 Klebsiella pneumoniae (KPC-3, SHV-1, TEM-1)
  MIC: X (MIC of less than 1 μg/mL)
Strain KP1084 Klebsiella pneumoniae (KPC-3, SHV-11, TEM-1)
  MIC: Y (MIC of 1 μg/mL to 10 μg/mL)
Strain KP1086 Klebsiella pneumoniae (OXA-48, CTX-M-15, TEM, SHV)
  MIC: Y (MIC of 1 μg/mL to 10 μg/mL)
Strain KP1087 Klebsiella pneumoniae (KPC-2, CTX-M-15, SHV-11, TEM-1)
  MIC: Y (MIC of 1 μg/mL to 10 μg/mL)
Strain KP1088 Klebsiella pneumoniae (KPC-3, SHV-11, TEM-1)
  MIC: X (MIC of less than 1 μg/mL)
Strain KP1089 Klebsiella pneumonias (OXA-181, CTX-M-15, TEM, SHV)
  MIC: X (MIC of less than 1 μg/mL)
Strain KP1095 Klebsiella pneumoniae (KPC-2 TEM-1 SHV-1)
  MIC: X (MIC of less than 1 μg/mL)
Strain KP1096 Klebsiella pneumoniae (KPC-2 TEM-181 SHV-11)
  MIC: X (MIC of less than 1 μg/mL)
Strain KP1097 Klebsiella pneumonias (IMP-1)
  MIC: X (MIC of less than 1 μg/mL)
Strain KP1098 Klebsiella pneumoniae (IMP-26)
  MIC: Y (MIC of 1 μg/mL to 10 μg/mL)
Strain KP1104 Klebsiella pneumoniae (KPC TEM)
  MIC: X (MIC of less than 1 μg/mL)
Strain KP1105 Klebsiella pneumoniae (KPC TEM SHV)
  MIC: X (MIC of less than 1 μg/mL)
Strain KP1159 Klebsiella pneumoniae (SHV-1(2b); CTX-M-15; IMP-4)
  MIC: X (MIC of less than 1 μg/mL)
Strain KP1160 Klebsiella pneumoniae (SHV-28(2be); CTX-M-15; IMP-26)
  MIC: X (MIC of less than 1 μg/mL)
Strain KP1161 Klebsiella pneumoniae (NDM-1)
  MIC: X (MIC of less than 1 μg/mL)
Strain KP1164 Klebsiella pneumoniae (SHV-12(2be); VIM-1)
  MIC: X (MIC of less than 1 μg/mL)
Strain KP1165 Klebsiella pneumoniae (SHV-11(2b); CTX-M-15; VIM-27)
  MIC: Z (MIC of greater than 10 μg/mL)
Strain KP1166 Klebsiella pneumoniae (SHV-5(2be); VIM-26)
  MIC: Y (MIC of 1 μg/mL to 10 μg/mL)
Strain KP1167 Klebsiella pneumoniae (SHV-12(2be); VIM-1)
  MIC: X (MIC of less than 1 μg/mL)
Strain KP1169 Klebsiella pneumoniae (SHV-11(2b); VIM-1)
  MIC: X (MIC of less than 1 μg/mL)
Strain KP1170 Klebsiella pneumoniae (SHV-11(2b); CTX-M-15; NDM-1)
  MIC: X (MIC of less than 1 μg/mL)
Strain KP1172 Klebsiella pneumoniae (SHV-31(2be); DHA-1; VIM-1)
  MIC: X (MIC of less than 1 μg/mL)
Strain KP1173 Klebsiella pneumoniae (TEM-33(2br); CTX-M-15; IMP-1)
  MIC: X (MIC of less than 1 μg/mL)
Strain KP1174 Klebsiella pneumoniae (CTX-M-14; IMP-1)
  MIC: X (MIC of less than 1 μg/mL)
Strain KP1175 Klebsiella pneumoniae (SHV-OSBL(2b); VIM-1)
  MIC: X (MIC of less than 1 μg/mL)
Strain KP1177 Klebsiella pneumoniae (SHV-OSBL(2b), TEM-OSBL(2b); CTX-M-15; NDM-1)
  MIC: X (MIC of less than 1 μg/mL)
Strain KP1178 Klebsiella pneumoniae (SHV-OSBL(2b;) TEM-OSBL(2b); CTX-M-15; NDM-1)
  MIC: X (MIC of less than 1 μg/mL)
Strain KP1179 Klebsiella pneumoniae (SHV-12(2be), TEM-OSBL(2b); CTX-M-15; NDM-7)
  MIC: X (MIC of less than 1 μg/mL)
Strain KP1180 Klebsiella pneumoniae (SHV-OSBL(2b), TEM-OSBL(2b); CTX-M-15; DHA-1; IMP-26)
  MIC: X (MIC of less than 1 μg/mL)
Strain KP1181 Klebsiella pneumoniae (SHV-OSBL(2b); CTX-M-15; IMP-26)
  MIC: X (MIC of less than 1 μg/mL)
Strain KP1183 Klebsiella pneumoniae (SHV-OSBL(2b), TEM-OSBL(2b); CTX-M-15; NDM-1)
  MIC: X (MIC of less than 1 μg/mL)
Strain KP1184 Klebsiella pneumoniae (SHV-OSBL(2b); IMP-1)
  MIC: X (MIC of less than 1 μg/mL)
Strain KP1185 Klebsiella pneumoniae (SHV-OSBL(2b), TEM-OSBL(2b); IMP-4)
  MIC: Y (MIC of 1 μg/mL to 10 μg/mL)
Strain KP1186 Klebsiella pneumoniae (CTX-M-15; NDM-1)
  MIC: X (MIC of less than 1 μg/mL)
Strain KP1187 Klebsiella pneumoniae (SHV-55(2be), TEM-OSBL(2b); CTX-M-15; NDM-1)
  MIC: X (MIC of less than 1 μg/mL)
Strain KP1188 Klebsiella pneumoniae (SHV-OSBL(2b); CTX-M-15; NDM-1)
  MIC: Y (MIC of 1 μg/mL to 10 μg/mL)
Strain KP1189 Klebsiella pneumoniae (TEM-OSBL(2b); CTX-M-15; CTX-M-27; NDM-1)
  MIC: X (MIC of less than 1 μg/mL)
Strain KPM1123 Klebsiella pneumoniae (KPC-2 TEM SHV)
  MIC: X (MIC of less than 1 μg/mL)
Strain KPM1202 Klebsiella pneumoniae (KPC SHV TEM)
  MIC: X (MIC of less than 1 μg/mL)
Strain KPM1203 Klebsiella pneumoniae (KPC SHV TEM)
  MIC: X (MIC of less than 1 μg/mL)
Strain KPM1344 Klebsiella pneumoniae (VIM-1)
  MIC: X (MIC of less than 1 μg/mL)
Strain KPM1345 Klebsiella pneumoniae (VIM-1 SHV)
  MIC: X (MIC of less than 1 μg/mL)
Strain KPM1347 Klebsiella pneumoniae (NDM-1 SHV CTX-M-15)
  MIC: X (MIC of less than 1 μg/mL)
Strain KX1017 Klebsiella oxytoca (KPC-2, OXA-2, SHV-30)
  MIC: X (MIC of less than 1 μg/mL)
Strain KX1018 Klebsiella oxytoca (KPC-2, SHV-40, OXY-1)
  MIC: X (MIC of less than 1 μg/mL)
Strain KX1019 Klebsiella oxytoca (KPC-2, OXA-2)
  MIC: X (MIC of less than 1 μg/mL)
Strain PM1024 Proteus mirabilis (TEM-1(2b); CMY-16; VIM-1)
  MIC: X (MIC of less than 1 μg/mL)
Strain PM1026 Proteus mirabilis (DHA-1; IMP-26)
  MIC: X (MIC of less than 1 μg/mL)
Strain PM1027 Proteus mirabilis (VIM-5)
  MIC: X (MIC of less than 1 μg/mL)
Strain SM1023 Serratia marcescens (VIM-4)
  MIC: Y (MIC of 1 μg/mL to 10 μg/mL)
